According to ChEMBL document CHEMBL1158634, “Towards Gram-positive antivirulence drugs: new inhibitors of Streptococcus agalactiae Stk1” (Bioorg Med Chem Lett, 2010):

experiment: Inhibition of Streptococcus agalactiae Stk1 preincubated for 30 mins

**Q.** For `Cn1cnc2c(NCCCO)nc(-c3cccc(C(F)(F)F)c3)nc21`, which IC50 is on record?
**A.** 4 µM

**Q.** Which IC50 does the source give for `Cn1cnc2c(NCCCO)nc(-c3cccc(NC(=O)NCc4ccccc4)c3)nc21` here?
**A.** 7.5 µM

**Q.** Which IC50 does the source give for `Cn1cnc2c(NCCCO)nc(-c3cccc(C(=O)O)c3)nc21` here?
**A.** 39 µM

**Q.** For `Cn1cnc2c(NCCO)nc(-c3cccc(NC(=O)Nc4cccc(Cl)c4)c3)nc21`, which IC50 is on record?
**A.** 0.32 µM

**Q.** For `CCn1cnc2c(NCCCO)nc(Cl)nc21`, which IC50 is on record?
**A.** 175 µM

**Q.** Which IC50 does the source give for `COCCCNc1nc(-c2cccc(NC(=O)Nc3cccc(Cl)c3)c2)nc2c1ncn2C` here?
**A.** 0.28 µM

**Q.** Which IC50 does the source give for `Cn1cnc2c(NCCCO)nc(N3CCOCC3)nc21` here?
**A.** 66 µM

**Q.** For `Cn1cnc2c(NCCCO)nc(-c3cccc(NC(=O)Nc4ccc5c(c4)OCO5)c3)nc21`, which IC50 is on record?
**A.** 0.28 µM

**Q.** With `Cn1cnc2c(NCCCO)nc(Nc3ccccc3)nc21` as the compound, how does the IC50 read?
**A.** 26 µM

**Q.** With `OCCCNc1nc(Cl)nc2[nH]cnc12` as the compound, how does the IC50 read?
**A.** > 300 µM

**Q.** Which IC50 does the source give for `Cn1cnc2c(NCCCO)nc(-c3ccccc3)nc21` here?
**A.** 12 µM

**Q.** For `Cn1cnc2c(NCCCO)nc(-c3cccc(C(=O)NCCc4cccnc4)c3)nc21`, which IC50 is on record?
**A.** 38 µM

**Q.** Which IC50 does the source give for `Cn1cnc2c(NCCCO)nc(N3CCNCC3)nc21` here?
**A.** 110 µM

**Q.** For `Cn1cnc2c(NCCCO)nc(-c3cccc(NS(C)(=O)=O)c3)nc21`, which IC50 is on record?
**A.** 15 µM

**Q.** Which IC50 does the source give for `Cn1cnc2c(NCCCO)nc(-c3cccc(NC(=O)Nc4c(Cl)cccc4Cl)c3)nc21` here?
**A.** 59 µM

**Q.** With `Cn1cnc2c(NCCCO)nc(NCc3ccccc3)nc21` as the compound, how does the IC50 read?
**A.** 48 µM

**Q.** For `Cn1cnc2c(NCCCO)nc(-c3cccc(NC(=O)Nc4cccc(N)c4)c3)nc21`, which IC50 is on record?
**A.** 0.73 µM

**Q.** Which IC50 does the source give for `CCCNC(=O)Nc1cccc(-c2nc(NCCCO)c3ncn(C)c3n2)c1` here?
**A.** 18 µM

**Q.** Which IC50 does the source give for `Cn1cnc2c(NCCCO)nc(-c3cccc(NC(=O)Nc4cccnc4)c3)nc21` here?
**A.** 0.96 µM

**Q.** With `Cn1cnc2c(NCCCO)nc(-c3cccc(Cl)c3)nc21` as the compound, how does the IC50 read?
**A.** 3 µM

**Q.** Which IC50 does the source give for `Cn1cnc2c(NCCCO)nc(-c3cccc(-c4ccccc4)c3)nc21` here?
**A.** 4 µM

**Q.** Which IC50 does the source give for `Cn1cnc2c(NCCCO)nc(-c3cccc(NC(=O)Nc4cc(Cl)cc(Cl)c4)c3)nc21` here?
**A.** 0.16 µM

**Q.** For `COc1ccc(NC(=O)Nc2cccc(-c3nc(NCCCO)c4ncn(C)c4n3)c2)cc1`, which IC50 is on record?
**A.** 0.63 µM

**Q.** Which IC50 does the source give for `Cn1cnc2c(N)nc(-c3cccc(NC(=O)Nc4cccc(Cl)c4)c3)nc21` here?
**A.** 1.3 µM

**Q.** For `CCCNc1nc(-c2cccc(NC(=O)Nc3cccc(Cl)c3)c2)nc2c1ncn2C`, which IC50 is on record?
**A.** 0.3 µM

**Q.** With `Cn1cnc2c(NCCCO)nc(-c3cccc(NC(=O)Nc4ccccc4Cl)c3)nc21` as the compound, how does the IC50 read?
**A.** 16 µM

**Q.** For `Cn1cnc2c(NCCCO)nc(-c3cccc(NC(=O)Nc4ccccc4)c3)nc21`, which IC50 is on record?
**A.** 1 µM

**Q.** With `Cn1cnc2c(NCCCO)nc(-c3cccc(NS(=O)(=O)Cc4ccccc4)c3)nc21` as the compound, how does the IC50 read?
**A.** 22 µM

**Q.** With `Cc1cccc(NC(=O)Nc2cccc(-c3nc(NCCCO)c4ncn(C)c4n3)c2)c1` as the compound, how does the IC50 read?
**A.** 0.2 µM

**Q.** With `Cn1cnc2c(NCCCO)nc(-c3cccc([N+](=O)[O-])c3)nc21` as the compound, how does the IC50 read?
**A.** 3 µM

**Q.** For `Cn1cnc2c(NCCCN)nc(-c3cccc(NC(=O)Nc4cccc(Cl)c4)c3)nc21`, which IC50 is on record?
**A.** 0.48 µM

**Q.** For `Cn1cnc2c(NCCCO)nc(-c3cccc(N)c3)nc21`, which IC50 is on record?
**A.** 13 µM

**Q.** For `CN(CCCO)c1nc(-c2cccc(NC(=O)Nc3cccc(Cl)c3)c2)nc2c1ncn2C`, which IC50 is on record?
**A.** > 300 µM

**Q.** With `Cn1cnc2c(NCCCO)nc(-c3cccnc3)nc21` as the compound, how does the IC50 read?
**A.** 34 µM

**Q.** With `Cn1cnc2c(NCCCO)nc(-c3cccc(NC(=O)Nc4cccc(C#N)c4)c3)nc21` as the compound, how does the IC50 read?
**A.** 0.49 µM

**Q.** For `CC(=O)Nc1cccc(-c2nc(NCCCO)c3ncn(C)c3n2)c1`, which IC50 is on record?
**A.** 18 µM

**Q.** For `CC(=O)Nc1cccc(NC(=O)Nc2cccc(-c3nc(NCCCO)c4ncn(C)c4n3)c2)c1`, which IC50 is on record?
**A.** 0.93 µM

**Q.** For `Cn1cnc2c(NCCCO)nc(-c3cccc(NC(=O)Nc4cccc(Cl)c4)c3)nc21`, which IC50 is on record?
**A.** 0.32 µM

**Q.** For `Cn1cnc2c(NCCCO)nc(-c3cccc(C(=O)NCCCc4ccccc4)c3)nc21`, which IC50 is on record?
**A.** > 300 µM

**Q.** For `Cn1cnc2c(NCCCO)nc(-c3cccc(C(=O)N4CCC(c5ccccc5)CC4)c3)nc21`, which IC50 is on record?
**A.** 174 µM

**Q.** With `Cn1cnc2c(NCCCO)nc(-c3cccc(NC(=O)Nc4cccc(S(C)(=O)=O)c4)c3)nc21` as the compound, how does the IC50 read?
**A.** 0.64 µM

**Q.** For `CC(C)n1cnc2c(NCCCO)nc(Cl)nc21`, which IC50 is on record?
**A.** > 300 µM

**Q.** For `Cn1cnc2c(NCCCO)nc(-c3cccc(NC(=O)Nc4ccsc4)c3)nc21`, which IC50 is on record?
**A.** 2 µM

**Q.** For `Cn1cnc2c(NCCCO)nc(-c3cccc(NC(N)=O)c3)nc21`, which IC50 is on record?
**A.** 12 µM

**Q.** For `Cn1cnc2c(NCCCO)nc(Cl)nc21`, which IC50 is on record?
**A.** 66 µM

**Q.** Which IC50 does the source give for `Cn1cnc2c(NCCCO)nc(-c3cccc(NC(=O)Nc4ccc(Cl)cc4)c3)nc21` here?
**A.** 1.6 µM
